For three compounds, Ki, Kd and kp results are on record in ChEMBL document CHEMBL1130841, “Evaluation of phosphorus-containing inhibitors of gamma-glutamyl hydrolase” (Bioorg Med Chem Lett, 1998).

One series deals with T1, Gamma-glutamyl hydrolase (Homo sapiens, UniProt Q92820).
T1 sequence (Q92820 whole entry): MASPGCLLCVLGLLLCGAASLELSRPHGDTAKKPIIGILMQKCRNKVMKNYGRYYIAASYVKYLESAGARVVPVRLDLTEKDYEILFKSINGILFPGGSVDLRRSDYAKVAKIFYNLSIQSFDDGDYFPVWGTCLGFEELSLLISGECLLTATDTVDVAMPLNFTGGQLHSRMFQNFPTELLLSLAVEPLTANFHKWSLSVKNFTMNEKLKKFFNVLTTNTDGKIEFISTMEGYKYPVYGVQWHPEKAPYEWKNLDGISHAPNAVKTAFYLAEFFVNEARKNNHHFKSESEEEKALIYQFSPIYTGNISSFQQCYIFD
The series is described as follows: Compound was tested for inhibitory potency against gamma-Glutamyl Hydrolase.

A short description of series [1]: Dissociation constant was evaluated. The class given is physicochemical.
The nature of series [2]: Phosphorylation rate constant was evaluated. It is filed as ADME.

The compound `O=C(O)CC[C@H](NP(=O)(O)c1ccccc1)C(=O)O` yielded a Ki at Gamma-glutamyl hydrolase of 0.95 nM.

Compound `COP(=O)(N[C@@H](CCC(=O)O)C(=O)O)OC` came in with a Kd in series [1] of 0.223 M⁻¹. The compound further registered a Ki at Gamma-glutamyl hydrolase of 10.9 M⁻¹. Besides, in series [2], the kp was 2.42 min⁻¹.

For `COP(=O)(N[C@@H](CCC(=O)O)C(=O)O)c1ccccc1` (some centres not stated), in series [1], the Kd came to 27.4 M⁻¹. This compound also registered a Ki at Gamma-glutamyl hydrolase of 0.264 M⁻¹. Also, the kp in series [2] was found to be 7.24 min⁻¹.
